What is called half-life is how long it takes for the measured level to halve. Usually Tmax stands for the time at which the peak concentration occurs. Broadly, the Cmax is the peak of the concentration-time curve. As a reminder, the AUC(0-inf) is total exposure, with the tail of the curve extrapolated. A low value points to less exposure.

The conditions of series [1]: in vivo, prepared as an aqueous solution; cited from earlier work.
The conditions of series [2]: releases formula (II) after hydrolysis in vivo; cited from earlier work.
Series [3] in a line: Study of pharmacokinetics, intramuscular injection in male rats. Type of series: in vivo. The conditions noted are these: whole blood, im, rat; for AUC: read-out: AUC0=last. Here is the method:
Study of Pharmacokinetics
3 Male rats for each group, the compound as shown in formula (I) was administered by intramuscular injection. Whole blood samples were collected at 0.25, 0.50, 1.0, 2.0, 4.0, 8.0, 12.0, 24.0 and 48.0 hour(s) after administration of the aqueous suspension group. Whole blood samples were collected at 0.25, 0.50, 2.0, 4.0, 8.0, 10.0, 24.0, 48.0, 72.0, 96.0, 120.0 and 144.0 hour(s) after administration of the oil suspension group. After precipitating the protein with acetonitrile/methanol, the supernatant was collected for sampling and the blood concentration of the compound was determined by LC-MS/MS. The non-compartment model linear logarithmic trapezoid method was used to calculate the pharmacokinetic parameters of the compounds as shown in formula (I) and formula (II) respectively by using WinNonlin™ Version 6.3 (Pharsight, Mountain View, Calif.) pharmacokinetic software.

For series [4] the following is noted: cited from earlier work.
Setting [5] is: intramuscular injection of oil suspension of formula (I), 51.4 μM/Kg.
Where [6] appears, read: intramuscular injection of oil suspension of formula (I), 51.4 μM/Kg, 44.50 mg/mL, 0.25% Tween 80, medium chain triglyceride.
[7] abbreviates: intramuscular injection of aqueous suspension of formula (I), 17.5 μM/Kg.

Like-named read-outs stand apart in the source and are kept apart here.

`C[C@@]12CCCCC[C@@H](Cc3c(F)cc(OC(=O)CCCCCCCCC(=O)Oc4cc(F)c5c(c4)[C@@]4(C)CCCCC[C@@H](C5)[C@@H]4N)cc31)[C@@H]2N` [formula (I)]: in series [1], the clearance rate entry is “too fast” and the half-life result is given as “short”. Moreover, the stability in plasma result in series [2] is “unstable”. In series [3] (setting [5]), the Tmax amounted to 0.25 h and the AUC stood at 0.11 µM·h. The same compound yielded a Cmax in series [3] (setting [6]) of 5.05 nM. For the same compound, in series [4] (oil solution), the “solubility in oil solution” value was “hardly soluble or insoluble”. In addition, the solubility in water result in series [4] (water) is “slightly soluble”.

For the compound `C[C@@]12CCCCC[C@@H](Cc3c(F)cc(O)cc31)[C@@H]2N` [formula (II)], in series [3] (setting [7]), the AUC(0-inf) was 5.81 µM·h, the time to peak (Tmax) stood at 4 h, the half-life was 7.52 h and the AUC was 5.71 µM·h. In addition, the Cmax in series [3] (intramuscular injection of aqueous suspension of formula (I), 17.5 μM/Kg, 25 μm/mL, 1% Tween 20, 7.5% PEG 1000, 0.75% citric acid monohydrate) came to 438 nM. Besides, in series [3] (setting [5]), the area under the curve AUC(0-inf) was determined as 10.4 µM·h, the Tmax worked out at 2 h, the half-life was 24.1 h and the AUC was 10.1 µM·h. Moreover, in series [3] (setting [6]), the Cmax was determined as 378 nM.

The values above are taken from patent US10744109B2, “Sustained release suspension containing dezocine analogue ester and preparation method therefor” (SHANDONG DANHONG PHARMACEUTICAL CO., LTD., priority 2017, dated 2020).
